Measured values as given in ChEMBL document CHEMBL3826909, “Quinoxaline-based inhibitors of Ebola and Marburg VP40 egress” (Bioorg Med Chem Lett, 2016).
The source made the active and inactive calls. The calls are words filed in the database; no cut-off is given here.

How the values were obtained:
[1] = target: T1, Matrix protein VP40 (Lake Victoria marburgvirus (strain Ravn-87) (MARV) (Marburg virus (strainKenya/Ravn/1987))) (UniProt Q1PDC8); test: Inhibition of Marburg virus VP40 PPxY L-domain motif expressed in HEK293T cells assessed as reduction in VLP budding at 0.03 uM relative to control; format: cell-based; details: HEK-293T
T1 sequence (whole entry): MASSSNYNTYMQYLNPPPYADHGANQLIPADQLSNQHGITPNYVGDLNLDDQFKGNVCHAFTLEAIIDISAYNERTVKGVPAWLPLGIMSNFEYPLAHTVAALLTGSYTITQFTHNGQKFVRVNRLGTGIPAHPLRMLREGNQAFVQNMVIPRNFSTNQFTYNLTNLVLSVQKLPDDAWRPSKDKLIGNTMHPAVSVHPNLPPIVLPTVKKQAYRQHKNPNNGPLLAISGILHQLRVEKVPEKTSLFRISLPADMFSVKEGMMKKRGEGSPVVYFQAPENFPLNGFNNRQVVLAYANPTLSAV

[2] = target: T1, Matrix protein VP40 (Lake Victoria marburgvirus (strain Ravn-87) (MARV) (Marburg virus (strainKenya/Ravn/1987))); test: Inhibition of Marburg virus VP40 PPxY L-domain motif expressed in HEK293T cells assessed as reduction in VLP budding at 0.3 uM relative to control; format: cell-based; details: HEK-293T
[3] = target: T1, Matrix protein VP40 (Lake Victoria marburgvirus (strain Ravn-87) (MARV) (Marburg virus (strainKenya/Ravn/1987))); test: Inhibition of Marburg virus VP40 PPxY L-domain motif expressed in HEK293T cells assessed as reduction in VLP budding at 1 uM after 24 hrs by Western blot analysis relative to control; format: cell-based; details: HEK-293T
Liver microsome [4] = test: Intrinsic clearance in human liver microsomes assessed per mg of protein; format: ADME
[5] = target: T1, Matrix protein VP40 (Lake Victoria marburgvirus (strain Ravn-87) (MARV) (Marburg virus (strainKenya/Ravn/1987))); test: Inhibition of Marburg virus VP40 PPxY L-domain motif expressed in HEK293T cells assessed as reduction in VLP budding at 1 uM relative to control; format: cell-based; details: HEK-293T
Liver microsome [6] = test: Half life in human liver microsomes; format: ADME
[7] = target: T1, Matrix protein VP40 (Lake Victoria marburgvirus (strain Ravn-87) (MARV) (Marburg virus (strainKenya/Ravn/1987))); test: Inhibition of Marburg virus VP40 PPxY L-domain motif expressed in HEK293T cells assessed as reduction in VLP budding at 0.1 uM relative to control; format: cell-based; details: HEK-293T
[8] = target: T1, Matrix protein VP40 (Lake Victoria marburgvirus (strain Ravn-87) (MARV) (Marburg virus (strainKenya/Ravn/1987))); test: Inhibition of Marburg virus VP40 PPxY L-domain motif expressed in HEK293T cells assessed as reduction in VLP budding at 25 uM relative to control; format: cell-based; details: HEK-293T
[9] = Cytotoxicity against human HEK293T cells assessed as cell viability at 0.01 uM after 24 hrs by MTT assay relative to control; format: cell-based, HEK-293T; details: read-out: Activity
Cytochrome P450 3A4 = Cytochrome P450 3A4 (Homo sapiens, UniProt P08684); test: Inhibition of CYP3A4 (unknown origin) using midazolam as substrate; format: ADME
Chain of Cytochrome P450 3A4 (P08684 whole entry): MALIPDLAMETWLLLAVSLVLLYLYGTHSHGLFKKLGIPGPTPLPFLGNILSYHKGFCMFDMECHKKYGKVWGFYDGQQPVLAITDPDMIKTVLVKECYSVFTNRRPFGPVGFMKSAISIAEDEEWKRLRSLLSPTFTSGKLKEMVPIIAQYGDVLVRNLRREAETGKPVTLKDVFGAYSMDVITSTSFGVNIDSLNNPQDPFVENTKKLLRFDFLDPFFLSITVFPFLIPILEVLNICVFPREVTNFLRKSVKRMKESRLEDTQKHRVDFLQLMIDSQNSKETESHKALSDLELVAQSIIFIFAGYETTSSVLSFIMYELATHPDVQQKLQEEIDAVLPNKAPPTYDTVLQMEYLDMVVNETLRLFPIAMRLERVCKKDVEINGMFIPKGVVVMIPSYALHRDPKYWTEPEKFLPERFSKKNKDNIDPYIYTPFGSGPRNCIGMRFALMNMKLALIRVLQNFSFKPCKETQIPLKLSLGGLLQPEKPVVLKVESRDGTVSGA

[10] = Half life in mouse liver microsomes; format: ADME
[11] = Cytotoxicity against human HEK293T cells assessed as cell viability at 10 uM after 24 hrs by MTT assay relative to control; format: cell-based, HEK-293T; details: read-out: Activity
[12] = Cytotoxicity against human HEK293T cells assessed as cell viability at 1 uM after 24 hrs by MTT assay relative to control; format: cell-based, HEK-293T; details: read-out: Activity
[13] = Effect on cellular protein levels in human HEK293T cells infected with recombinant Vesicular stomatitis virus-M40 expressing Ebola virus VP40 PPxY L-domain motif at 30 to 100 nM after 8 hrs by Western blot analysis relative to control; format: ADME, cell-based; details: hek-293t, 0.1 µM
[14] = Cytotoxicity against human HEK293T cells assessed as cell viability at 0.1 uM after 24 hrs by MTT assay relative to control; format: cell-based, HEK-293T; details: read-out: Activity
[15] = tested on: Vesicular stomatitis virus; test: Effect on viral protein levels in recombinant Vesicular stomatitis virus-M40 expressing Ebola virus VP40 PPxY L-domain motif infected in HEK293T cells at 30 to 100 nM after 8 hrs by Western blot analysis relative to control; format: ADME, organism-based; details: hek-293t, 0.1 µM
[16] = Cytotoxicity against African green monkey Vero E6 cells assessed as cell viability at 1 uM after 24 hrs by MTT assay relative to control; format: cell-based; details: chlorocebus sabaeus, read-out: Activity
[17] = Cytotoxicity against African green monkey Vero E6 cells assessed as cell viability at 0.01 uM after 24 hrs by MTT assay relative to control; format: cell-based; details: chlorocebus sabaeus, read-out: Activity
[18] = Cytotoxicity against African green monkey Vero E6 cells assessed as cell viability at 0.1 uM after 24 hrs by MTT assay relative to control; format: cell-based; details: chlorocebus sabaeus, read-out: Activity
[19] = target: T1, Matrix protein VP40 (Lake Victoria marburgvirus (strain Ravn-87) (MARV) (Marburg virus (strainKenya/Ravn/1987))); test: Inhibition of Marburg virus VP40 PPxY L-domain motif-Nedd4 interaction in HEK293T cells coexpressing NYFP-Nedd4 and CYFP-mVP40 at 0.1 uM by inverted confocal microscopy based bimolecular complementation assay; format: cell-based; details: HEK-293T
[20] = Cytotoxicity against African green monkey Vero E6 cells assessed as cell viability at 10 uM after 24 hrs by MTT assay relative to control; format: cell-based; details: chlorocebus sabaeus, read-out: Activity
[21] = target: T1, Matrix protein VP40 (Lake Victoria marburgvirus (strain Ravn-87) (MARV) (Marburg virus (strainKenya/Ravn/1987))); test: Inhibition of Marburg virus VP40 PPxY L-domain motif expressed in HEK293T cells assessed as reduction in VLP budding at 10 uM relative to control; format: cell-based; details: HEK-293T

SMILES: Cc1ccc(NC(=O)NC(=O)CSc2nc3ccccc3nc2C)c(C)c1
- inhibition [1]: 62%
- inhibition [2]: 100%

SMILES: Cc1nc2ccccc2nc1SCC(=O)NC(=O)Nc1ccccc1
- fold change (FC) [3]: 100
- Intrinsic clearance (Liver microsome [4]): 1.66 mL/min
- inhibition [5]: 88%
- t1/2 (Liver microsome [6]): 43.9 min

SMILES: Cc1nc2ccccc2nc1SCC(=O)NC(=O)Nc1c(C)nn(C)c1C
- inhibition [5]: 64%

SMILES: Cc1ccc(F)cc1NC(=O)NC(=O)CSc1nc2ccccc2nc1C
- inhibition [7]: 89%

SMILES: Cc1ccccc1NC(=O)NC(=O)COc1nc2ccccc2nc1C
- inhibition [2]: 100%
- inhibition [5]: 100%
- inhibition [7]: 58%

SMILES: Cc1nc2ccccc2nc1SCC(=O)NC(=O)N1CCc2ccccc21
- inhibition [5]: inactive

SMILES: CCNC(=O)NC(=O)CSc1nc2ccccc2nc1C
- inhibition [5]: inactive
- inhibition [8]: 60%
- inhibition [7]: inactive

SMILES: Cc1nc2ccccc2nc1SCC(=O)NC(=O)Nc1ccccc1C#N
- inhibition [5]: 87%

SMILES: Cc1nc2ccccc2nc1SCC(=O)N(C)C(=O)Nc1ccccc1F
- inhibition [5]: inactive

SMILES: Cc1nc2ccccc2nc1SCC(=O)NC(=O)Nc1cccc(Cl)c1
- inhibition [2]: 49%

SMILES: Cc1nc2ccccc2nc1SCC(=O)NC(=O)Nc1cccc(F)c1C
- inhibition [1]: 86%
- viability at 24 h, 0.01 µM [9]: 95.1%
- IC50 (Cytochrome P450 3A4): > 33 µM
- t1/2 [10]: 3.5 min
- viability at 24 h, 10 µM [11]: 63.5%
- viability at 24 h, 1 µM [12]: 60.1%
- Activity [13]: Non-toxic
- viability at 24 h, 0.1 µM [14]: 70.4%
- Activity [15]: Non-toxic
- viability at 24 h, 1 µM [16]: 78.7%
- Intrinsic clearance (Liver microsome [4]): 0.54 mL/min
- viability at 24 h, 0.01 µM [17]: 102%
- t1/2 (Liver microsome [6]): > 90 min
- viability at 24 h, 0.1 µM [18]: 92.6%
- inhibition [7]: 100%
- inhibition [19]: Active
- viability at 24 h, 10 µM [20]: 84%

SMILES: CCc1nc2ccccc2nc1SCC(=O)NC(=O)Nc1ccccc1Cl
- inhibition [7]: inactive

SMILES: COc1cccc(NC(=O)NC(=O)CSc2nc3ccccc3nc2C)c1
- inhibition [1]: inactive
- inhibition [2]: 98%
- inhibition [5]: 100%
- inhibition [7]: 60%

SMILES: Cc1nc2ccccc2nc1SCC(=O)NC(=O)NC1CC1
- inhibition [21]: 60%
- inhibition [5]: inactive
- inhibition [7]: inactive

SMILES: O=C(CSc1nc2ccccc2nc1C(F)(F)F)NC(=O)Nc1ccccc1Cl
- IC50 (Cytochrome P450 3A4): > 33 µM
- inhibition [2]: inactive
- t1/2 [10]: 49.9 min
- Intrinsic clearance (Liver microsome [4]): 0.77 mL/min
- inhibition [5]: inactive
- t1/2 (Liver microsome [6]): 71.7 min
- inhibition [7]: inactive

SMILES: Cc1nc2ccccc2nc1SCC(=O)NC(=O)NCc1ccccc1
- inhibition [5]: 60%
- inhibition [7]: 29%

SMILES: Cc1nc2ccccc2nc1SCC(=O)NC(=O)Nc1cccc(C#N)c1
- inhibition [5]: 72%

SMILES: COc1ccc(NC(=O)NC(=O)CSc2nc3ccccc3nc2C)cc1
- inhibition [1]: 25%
- inhibition [5]: 100%
- inhibition [7]: 99%

SMILES: Cc1nc2ccccc2nc1SCC(=O)NC(=O)Nc1cc[nH]n1
- inhibition [5]: inactive

SMILES: Cc1nc2ccccc2nc1S(=O)(=O)CC(=O)NC(=O)Nc1ccc(F)cc1
- inhibition [5]: inactive

SMILES: Cc1cccc(NC(=O)NC(=O)CSc2nc3ccccc3nc2C)c1C
- inhibition [1]: 41%
- inhibition [2]: 98%

SMILES: CCc1nc2ccccc2nc1SCC(=O)NC(=O)Nc1cccc(F)c1C
- inhibition [2]: inactive
- t1/2 [10]: 54.8 min
- inhibition [5]: 67%
- t1/2 (Liver microsome [6]): 31.3 min
- inhibition [7]: inactive

SMILES: Cc1nc2ccccc2nc1SCC(=O)NC(=O)Nc1ccc(Cl)cc1
- inhibition [7]: 82%

SMILES: Cc1nc2ccccc2nc1SCC(=O)NC(=O)Nc1c(C)n[nH]c1C
- inhibition [5]: 50%

SMILES: Cc1nc2ccccc2nc1SCC(=O)NC(=O)NCc1cccs1
- inhibition [5]: 97%
- inhibition [7]: inactive
